Results from patent publication US6218378A, “Anti-tumor agents comprising pyridyl-substituted metal-diphosphine complex” (priority 1994, dated 2001).

How the values were obtained:
[1] = test system: human tumour cell lines; test: selectivity of cytotoxicity over all cell lines evaluated (Tables 1 and 2); type: cell-based
Excerpt: The origins of the human melanoma cell line MM96 has been described in Whitehead et al., 1973, Pigment Cell 1 383-389. The cell line JAM is described in Ward et al., 1987, Cancer Res. 47 2662-2667. The origin of the ovarian tumour line CI-80-13S has been described in Bertoncello et al., 1985, Aust. J. Exp. Biol. Med. Sci. 63 241-243. The origin of the cervical carcinoma cell line HeLa has been described in Maynard et al., 1986, Cancer Res. 46 5009-5093. The subclone HeLa-S1a was derived by stably transfecting HeLa with PAI-2 cDNA described in Schleuning et al., 1987, Mol. Cell. Biol. 7 4564-4567 in the sense orientation under the control of the cyto-megalovirus (CMV) promoter. The stably infected subclone was isolated following G418 selection and expression of the PAI-2 transgene characterised by immunoblot analysis and quantitated by ELISA. All of these cell lines have been used before for carrying out cell survival assays referred to in FIGS. 1-4. Cells were cultured at 37° in 5% CO2 /air in Roswell Park Memorial Institute medium 1640 containing 5% foetal calf serum, 100 μg/ml streptomycin, 100 IU/ml penicillin, 1 mM pyruvate, 50 μM nicotinamide and 3 mM HEPES.
Cells were seeded in microtitre plates (lowest number for fastest growing cells: 1000 HeLa, 2000 MM96, […] CI-80-13S cells per 6 mm well in 100 μl), normally but not necessarily allowed to attach overnight, then 5 dilutions of the drug were added to duplicate wells. After an overnight incubation to equilibrate the pH, the lids were quickly taped around the edge to prevent evaporation. The plates were incubated for 5-7 days, until the controls were nearly confluent. Cell growth/morphology was scored at each dose visually (inverted microscope). The medium was then replaced by 50 μl fresh medium containing 2 u/Ci/ml [methyl-3H]-thymidine (5 Ci/mmol; Radiochemical Centre, Amersham, Bucks., U.K.) and incubated for 2-4 hr. The cells were washed with PBS (0.1 M NaCl, 50 mM phosphate, pH 7.2), detached with 100 μl of PBS containing 0.2 mg/ml trypsin and 10 mM EDTA, and washed onto a glass fibre GF/a filter mat with water using a cell harvester. Later, wells were checked under the microscope to ensure complete detachment and washout. Radioactivity was determined in an LKB Beta Plate counter and the results plotted as log % control cpm versus dose. The ID50 (dose required to give 50% survival) was interpolated from this survival curve.
The sensitive CH1 cell line was established from a patient with drug-sensitive disease and its resistant variant (CH1-cisR) was generated by prolonged in vitro exposure to cisplatin during which it acquired more efficient DNA repair as described in Kelland et al., 1992, Cancer Research 52 3857-3864. The sensitive 41M cell line was also established from a patient with a sensitive tumor and its resistant variant (41M-cisR) was generated in the same way but acquired decreased uptake across the cell membrane (Kelland et al., 1992, supra). The intrinsically-resistant SKOV-3 ovarian carcinoma cell line has high glutathione levels as described in Mistry et al., 1991, Brit. J. Cancer 64 215-220 and reduced levels of bi-functional cisplatin-DNA lesions as described in McKeage et al., 1994, Brit. J. Cancer 69 1-7. The characteristics of the cell line pairs CH1/CH1 cisR, 41M/41McisR and 41M/SKOV3 are described in Table 3.
The cytotoxicity assay used sulforhodamine B which stains the basic amino acids. Cells (5000 or 2500 for SKOV-3) were seeded into 96 well microtitre plates (Linbro, Flow Laboratories Inc., USA) in 0.1 ml of medium. After an overnight incubation, the metal phosphine compounds were dissolved in 0.9% NaCl or ethanol and diluted with medium, were added at concentrations ranging from 0.005 to 50 μM to quadruplicate wells. After 96 hrs incubation, the medium was removed and cells were fixed in 0.2 ml of cold 10% (w/v) trichloroacetic acid (May & Baker Ltd., Dagenham, England) for 30 mins at 4° C. The plates were washed five times with tap water. […]

[2] = test system: HeLa; conditions: ID37 data from Ying Dong et al. submitted for publication; cited from earlier work
[3] = test system: HeLa-S1a; conditions: ID37 data from Ying Dong et al. submitted for publication; cited from earlier work
[4] = test system: JAM; conditions: ID37 data from Ying Dong et al. submitted for publication; cited from earlier work
[5] = test system: CI-80-13S; conditions: ID37 data from Ying Dong et al. submitted for publication; cited from earlier work
[6] = test system: tumour models in mice; conditions: literature; mice; cited from earlier work
[7] = test system: Beagle dogs; conditions: cited from earlier work
[8] = test system: DNA in tumour cells; conditions: cited from earlier work
[9] = attributed to lipophilic cationic properties; cited from earlier work
[10] = test system: mitochondrial membrane / oxidative phosphorylation; conditions: cited from earlier work

In the case of `[Au+].[Cl-].c1ccc(P(CCP(c2ccccc2)c2ccccc2)c2ccccc2)cc1.c1ccc(P(CCP(c2ccccc2)c2ccccc2)c2ccccc2)cc1` [[Au(dppe)2]Cl], the degree of selectivity ([1]; Tables 1 and 2) is listed as “the least selectivity”, the “number of cell lines against which cytotoxic” value ([1]; nine cell-lines tested / all evaluated) is listed as “cytotoxic to all the cell lines evaluated” and the “ID37” value [2] is listed as 0.95 ± 0.13 µM. For the same compound, the “ID37” value [3] was 0.073 ± 0.005 µM, the “ID37” value [4] was 0.73 ± 0.15 µM and the “ID37” value [5] was 0.20 ± 0.03 µM. For the same compound, the antitumour activity [6] was “good antitumour activity”, the “toxicities in preclinical trials” value [7] was “severe cardiac, hepatic and vascular toxicities” and the DNA damage [8] was “produced DNA-single strand breaks and DNA-protein crosslinks in tumour cells”. The hepatotoxicity [9] was “severe and unacceptable hepatotoxicity” and the “effect on mitochondrial function” value [10] was “uncouples oxidative phosphorylation via dissipation of the membrane potential”.
